Measurements published in patent US20240139185A1, “COMPOUNDS THAT PARTICIPATE IN COOPERATIVE BINDING AND USES THEREOF” (Revolution Medicines, Inc., priority 2018, published 2024).
Like-named read-outs stand apart in the source and are kept apart here.

Tests used:
[1] = target: cyclophilin A (CYPA) (Homo sapiens, UniProt P62937); assay: CYPA-compound binary complex formation by SPR; conditions: read-out: CYPA Binding Affinity
Protocol: In order to determine the affinity of compounds of the invention for cyclophilin A (CYPA), we employed surface plasmon resonance binding analysis using the following reagents, instruments and protocol as supplied by the instrument manufacturer.
Reagents and Instrument • 1. Instrument: Biacore S200 (GE Healthcare Life Sciences) • 2. Running buffer: 1×HBS-P+ (1×HBS supplemented with 0.05% Tween20), pH7.4, and 2% DMSO. • 3. Ligand: CypA-Avi • 4. Analyte: Serial dilution of WDB compounds from 50 μM to 0 μM, 2-fold dilution, 10 points (10 mM stock concentration). • 5. Sensor kit: Biotin CAPture Kit (BR28-9202-34, GE Healthcare Life Sciences) • 6. Regeneration buffer: 1 volume of 1 M NaOH and 3 volumes of 8 M guanidine hydrochloride (supplied with CAPture Kit, BR28-9202-34, GE Healthcare Life Sciences)
Experimental Procedure • 1. Capture of CAPreagent: 2 μl/min for 60 seconds. • 2. Immobilization of ligand CypA: Use Fc1 as the reference cell; immobilize CypA at 4 μg/ml using 5 μl/min flowrate on Fc2 (60s), Fc3 (80s) and Fc4 (80s), respectively. • 3. Binding of analytes: Inject WDB compound dilutions sequentially at 50 μl/min for association of 60 seconds. And then let it dissociates in buffer at 50 μl/min for 60 seconds. • 4. Regeneration: 2 injections of regeneration buffer at 30 μl/min for 60 seconds to regenerate the chip surface. • 5. Solvent correction: Run solvent correction at beginning and the end of the run. If run more than 6 compounds, add additional solvent correction every 6 compounds. • 6. Data fitting with built-in Biacore Evaluation Software: Steady-state fitting.

[2] = test system: pERK in H358 cells; assay: pERK inhibition in H358 cells; assay type: cell-based, human; conditions: read-out: Cellular pERK inhibition
Protocol: H358 cells (5500 cells) derived from a human lung cancer were plated in a 96 well plate in media (100 uL, RPMI with 10% FBS). After 24 hours, cells were treated for 4 hours with compound or DMSO. Cells were washed twice with room temperature TBS (200 uL) and fixed for 20 minutes with 4% paraformaldehyde diluted with TBS (150 uL). Cells were washed four times for five minutes with 0.1% TritonX/TBS (150 uL) to permeabilize the membrane. Cells were incubated with TBS blocking buffer (100 uL) at room temperature for 60 minutes. Primary antibody (Phospho-p44/42 MAPK (Erk1/2) (Thr202/Tyr204) (D13.14.4E) XP® Rabbit mAb #4370, Cell Signaling Technology; 1:200) was added, and the cells were incubated overnight at 4 C. The cells were washed four times for five minutes with 0.1% Tween 20/TBS (150 uL). Secondary antibody (IRDye® 800CW Goat-Anti-Rabbit IgG, Li-Cor Biosciences; 1:1000) and DRAQ5™ (Invitrogen; 1:2000) was added, and the cells were incubated for 1 hour at room temperature. The cells were washed four times for five minutes with 0.1% Tween 20/TBS (150 uL) and scanned using the LICOR (700 and 800 nm).

[3] = target: T1, BRAF-GTP-KRAS-G12C complex (Homo sapiens, UniProt P01116+P62937, G12C); assay: KRAS-BRAF complex disruption through competition with CYPA-compound by TR-FRET; conditions: biochemical BRAF-KRAS G12C-GTP disruption assay EC50, with CYPA
T1 construct: 50 nM of His6-KRas G12C-GTP (1-169); 500 nM of tagless CypA (1-165)
Protocol: In this example, TR-FRET was used to measure the compound-facilitated disruption of a KRAS-BRAF complex. A mixture of tagless Cyclophilin A, His6-KRAS G12C-GMP-PNP, and GST-BRAF RAS binding domain was added to a 384-well assay plate containing compounds of the invention and incubated for 3 hours. A mixture of Anti-His Eu-W1024 and anti-GST allophycocyanin was then added and the reaction was incubated for an additional 1.5 hours. TR-FRET signal was read on an EnVision microplate reader (Perkin Elmer, Ex 320 nm, Em 665/615 nm). Compounds that facilitate disruption of a KRAS_BRAF complex were identified as those eliciting a decrease in the TR-FRET ratio relative to DMSO control wells. To determine the presenter-dependence of the compound-mediated KRAS-BRAF complex disruption, Cyclophilin A was left out of the initial incubation (see Table 5). To determine G12C specificity of the compound-mediated KRAS-BRAF complex disruption, wild-type KRAS was used instead of G12C KRAS (see Table 5).
Reagents and Instrument • Tagless CYPA; 519 μM in PBS buffer, pH 7.4 • GST BRAF; 110 μM in PBS buffer, pH 7.4 • His6-KRASG12C-GMP-PNP; 50 μM in PBS buffer, pH 7.4 • His6-KRASWT-GMP-PNP; 40 μM in PBS buffer, pH 7.4 • Anti-His Eu-W1024 (LANCE® Eu-W1024; Perkin Elmer) • Anti-GST allophycocyanin (Anti-GST IgG conjugated to SureLight®-Allophycocyanin; Perkin Elmer; Product Number AD0059G) • Test compounds, 10 mM in 100% DMSO • EnVision (Perkin Elmer) • Combi MultiDrop liquid dispenser with 8-channel small volume cassette • 384-well ProxiPlate (black)
Experimental Protocol • 1. Use Mosquito to dispense 100 nL/well of compounds (varying concentration in […]) into 384-well black ProxiPlate to make assay-ready-plate (ARP). • 2. Make assay buffer containing 25 mM Hepes pH 7.3, 100 mM NaCl, 5 mM MgCl2, 0.05% BSA, and 0.002% Tween-20. • 3. Make PRE-MIX A: delivers final concentrations of 50 nM of His6-KRas G12C-GTP (1-169) and 500 nM of tagless CypA (1-165) in assay buffer. • a. For presenter dependence experiments, omit addition of tagless CypA • b. For G12C/wt specificity experiments, substitute His6-KRas WT-GTP (1-169) for His6-KRas G12C-GTP (1-169) • 4. Use MultiDrop Combi to dispense PRE-MIX A into ARP, 7 μl/well. Incubate 3 hr at room temperature. • 5. Make PRE-MIX B: delivers final concentrations of 10 nM of anti-His Eu-W1024 and 50 nM of anti-GST APC. • 6. Use MultiDrop Combi to dispense PRE-MIX B into ARP, 3 μl/well. Shake briefly on Combi and incubate 1.5 hr at room temperature. • 7. Read on EnVision (Ex: 320 nm; Em1: 615 nm; Em2: 665 nm). • 8. Data is processed using Dotmatics. Curves are fit using a 4-parameter non-linear fit to determine the EC50 value for formation of the ternary complex.

| Kd [1] [µM] | IC50 ([2]; 4 hours treatment) [µM] | EC50 [3] [µM] | IC50 ([2]; Homo sapiens, NCI-H358, 4 hours treatment) [µM] | SMILES |
| --- | --- | --- | --- | --- |
| > 15 | 1 to 10 | ≤ 0.5 | – | CC(C)[C@@H](C(=O)N[C@H]1Cc2cc(O)cc(c2)-c2ccc3c(-c4ccccc4Cl)cn(c3c2)CC(C)(C)COC(=O)[C@@H]2CCCN(N2)C1=O)N(C)C(=O)C1CN(C(=O)CCl)C1 [Compound 241] |
| ≤ 5 | > 10 | 0.5 to 5 | – | CC1COC(=O)[C@@H]2CCCN(N2)C(=O)[C@@H](NC(=O)[C@H](C(C)C)N(C)C(=O)C2CN(C(=O)CCl)C2)Cc2cc(O)cc(c2)-c2ccc3c(c2)N(CCO3)C1 (single isomer, unassigned) [Compound 184] |
| ≤ 5 | > 10 | > 5 | – | C=CC(=O)N1CCC(C(=O)N(C)C(C(=O)NC2Cc3cc(O)cc(c3)-c3ccc4c(c3)N(CC(C)COC(=O)C3CCCN(N3)C2=O)CC4(C)C(C)=O)C(C)C)C1 (stereo not drawn) [Compound 391] |
| 5 to 15 | 1 to 10 | ≤ 0.5 | – | CC(C)[C@@H](C(=O)N[C@H]1Cc2cc(O)cc(c2)-c2ccc3c(C(C)(C)C#N)cn(c3c2)CC(C(F)F)COC(=O)[C@@H]2CCCN(N2)C1=O)N(C)C(=O)C1CN(C(=O)CCl)C1 (single isomer, unassigned) [Compound 37] |
| 5 to 15 | > 10 | ≤ 0.5 | – | Cc1nc2ccc3cc2n1CC1(CC1)COC(=O)[C@@H]1CCCN(N1)C(=O)[C@@H](NC(=O)[C@H](C(C)C)N(C)C(=O)C1CN(C(=O)CCl)C1)Cc1cc(O)cc-3c1 [Compound 151] |
| ≤ 5 | 1 to 10 | 0.5 to 5 | – | CC(C)[C@@H](C(=O)N[C@H]1Cc2cc(O)cc(c2)-c2ccc3c(C(C)(C)C#N)cn(c3c2)C[C@H](C)COC(=O)[C@@H]2CCCN(N2)C1=O)N1CC[C@@H](N(C)C(=O)CCl)C1=O [Compound 30] |
| > 15 | 1 to 10 | ≤ 0.5 | – | Cc1cc2ccc3cc2n1CC(C)(C)COC(=O)[C@@H]1CCCN(N1)C(=O)[C@@H](NC(=O)[C@H](C(C)C)N(C)C(=O)C1CN(C(=O)CCl)C1)Cc1cc(O)cc-3c1 [Compound 103] |
| 5 to 15 | 1 to 10 | ≤ 0.5 | – | COc1ccc(-c2cn3c4cc(ccc24)-c2cc(O)cc(c2)C[C@H](NC(=O)[C@H](C(C)C)N(C)C(=O)C2CN(C(=O)CCl)C2)C(=O)N2CCC[C@H](N2)C(=O)OC[C@@H](C)C3)cc1 [Compound 50] |
| 5 to 15 | 1 to 10 | ≤ 0.5 | – | C=CS(=O)(=O)N1CCN([C@H](C(=O)N[C@H]2Cc3cc(O)cc(c3)-c3ccc4nc(C)n(c4c3)CC(C)(C)COC(=O)[C@@H]3CCCN(N3)C2=O)C(C)C)C1=O [Compound 152] |
| ≤ 5 | > 10 | > 5 | – | CC(C)[C@@H](C(=O)N[C@H]1Cc2cc(O)nc(c2)-c2ccc3c(C(C)(C)C#N)cn(c3c2)CC(C)(C)COC(=O)[C@@H]2CCCN(N2)C1=O)N(C)C(=O)C1CN(C(=O)CCl)C1 [Compound 339] |
| 5 to 15 | – | ≤ 0.5 | > 10 | C=CC(=O)N1CCN([C@H](C(=O)N[C@H]2Cc3cc(O)cc(c3)-c3ccc4nc(C)n(c4c3)CC(C)(C)COC(=O)[C@@H]3CCCN(N3)C2=O)C(C)C)C1=O [Compound 1, (2S)-2-(3-acryloyl-2-oxoimidazolidin-1-yl)-N-((6^3S,4S)-2^5-hydroxy-1^2,10,10-trimethyl-5,7-dioxo-6^1,6^2,6^3,6^4,6^5,6^6-hexahydro-1^1H-8-oxa-1(6,1)-benzo[d]imidazola-6(1,3)-pyridazina-2(1,3)-benzenacycloundecaphane-4-yl)-3-methylbutanamide] |
| > 15 | 1 to 10 | ≤ 0.5 | – | CN(C(=O)C1CN(C(=O)CCl)C1)[C@@H](CC1CC1)C(=O)N[C@H]1Cc2cc(O)cc(c2)-c2ccc3c(C(C)(C)C#N)cn(c3c2)CC(C)(C)COC(=O)[C@@H]2CCCN(N2)C1=O [Compound 57] |
| ≤ 5 | > 10 | > 5 | – | CCN1C(=O)CCN2C[C@H](C)COC(=O)[C@@H]3CCCN(N3)C(=O)[C@@H](NC(=O)[C@H](C(C)C)N(C)C(=O)C3CN(C(=O)CCl)C3)Cc3cc(O)cc(c3)-c3ccc1c2c3 [Compound 188] |
| 5 to 15 | 1 to 10 | ≤ 0.5 | – | CC(C)[C@@H](C(=O)N[C@H]1Cc2cc(O)cc(c2)-c2ccc3c(C#N)cn(c3n2)CC(C)(C)COC(=O)[C@@H]2CCCN(N2)C1=O)N(C)C(=O)C1CN(C(=O)CCl)C1 [Compound 176] |
| 5 to 15 | 1 to 10 | 0.5 to 5 | – | C#CCOCc1cc2ccc3cc2n1C[C@H](C)COC(=O)[C@@H]1CCCN(N1)C(=O)[C@@H](NC(=O)[C@H](C(C)C)N(C)C(=O)C1CN(C(=O)CCl)C1)Cc1cc(O)cc-3c1 [Compound 91] |
| > 15 | ≤ 1 | ≤ 0.5 | – | CC(C)[C@@H](C(=O)N[C@H]1Cc2cc(O)cc(c2)-c2ccc3c(Cl)cn(c3c2)CC(C)(C)COC(=O)[C@@H]2CCCN(N2)C1=O)N(C)C(=O)C1CN(C(=O)CCl)C1 [Compound 104] |
| 5 to 15 | 1 to 10 | ≤ 0.5 | – | Cc1c(C#N)c2ccc3cc2n1CC(C)(C)COC(=O)[C@@H]1CCCN(N1)C(=O)[C@@H](NC(=O)[C@H](C(C)C)N(C)C(=O)C1CN(C(=O)CCl)C1)Cc1cc(O)cc-3c1 [Compound 106] |
| 5 to 15 | > 10 | ≤ 0.5 | – | CC(C)C(C(=O)NC1Cc2cc(O)cc(c2)-c2ccc3c(C(C)(C)C#N)cn(c3c2)CC(F)COC(=O)C2CCCN(N2)C1=O)N(C)C(=O)C1CN(C(=O)CCl)C1 (single isomer, unassigned) [Compound 25] |
